Measurements taken from patent publication US20260226048A1, “MULTI-CYCLIC IRAK AND FLT3 INHIBITING COMPOUNDS AND USES THEREOF” (CHILDREN'S HOSPITAL MEDICAL CENTER, priority 2023, published 2026).
Like-named read-outs stand apart in the source and are kept apart here.

Key:
[1] = biological target: T1, FLT3 (Homo sapiens, UniProt P36888); test: Reaction Biology NanoBRET target engagement assay in HEK-293 cells, FLT3; format: cell-based; conditions: live HEK-293 cells transfected with Kinase-NanoLuc fusion, 1 hour
T1 sequence (P36888 27-993): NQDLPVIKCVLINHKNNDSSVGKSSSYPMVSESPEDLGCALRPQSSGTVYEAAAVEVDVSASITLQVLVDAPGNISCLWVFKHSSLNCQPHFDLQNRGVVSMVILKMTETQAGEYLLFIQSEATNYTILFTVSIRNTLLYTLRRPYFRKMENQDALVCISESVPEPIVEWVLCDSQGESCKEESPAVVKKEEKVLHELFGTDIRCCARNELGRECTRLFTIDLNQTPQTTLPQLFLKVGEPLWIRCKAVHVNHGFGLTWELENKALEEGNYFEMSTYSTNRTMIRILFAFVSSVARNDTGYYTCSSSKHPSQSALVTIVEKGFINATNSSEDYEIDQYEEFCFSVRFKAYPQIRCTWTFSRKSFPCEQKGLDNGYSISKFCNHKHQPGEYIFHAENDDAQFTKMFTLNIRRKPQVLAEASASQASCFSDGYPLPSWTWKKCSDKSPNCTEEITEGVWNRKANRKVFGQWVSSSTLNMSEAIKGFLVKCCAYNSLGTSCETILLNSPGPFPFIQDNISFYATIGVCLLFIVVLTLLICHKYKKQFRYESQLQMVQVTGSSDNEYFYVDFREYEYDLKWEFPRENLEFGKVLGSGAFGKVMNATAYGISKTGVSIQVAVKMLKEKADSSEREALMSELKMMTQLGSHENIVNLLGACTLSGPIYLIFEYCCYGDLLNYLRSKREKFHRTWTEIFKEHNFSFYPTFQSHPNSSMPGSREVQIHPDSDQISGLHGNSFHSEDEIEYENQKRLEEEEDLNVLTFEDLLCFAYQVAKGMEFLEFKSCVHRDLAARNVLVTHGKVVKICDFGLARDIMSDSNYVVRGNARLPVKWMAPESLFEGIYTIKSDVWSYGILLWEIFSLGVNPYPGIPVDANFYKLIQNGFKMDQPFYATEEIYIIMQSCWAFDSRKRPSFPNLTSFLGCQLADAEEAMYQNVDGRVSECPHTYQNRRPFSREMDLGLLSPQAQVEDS
Text: The NanoBRET assay measures kinase engagement in real time in the context of the intact cell. Unlike the previously described biochemical kinase assay methodology in Example 33, the NanoBRET assay measures the binding and activity characteristics under equilibrium conditions using full-length kinases in the presence of cellular concentrations of ATP in live, uncompromised cells. As such, the assay provides a more relevant assessment of kinase potency and selectivity that would be expected to be observed in the native cellular environment, where potency is often considerably lower than that observed in the isolated biochemical assays (Vasta, J. D. et al., (2018) Cell Chem. Biol. 25, 206-214). The assay uses a Kinase-NanoLuc® fusion vector expressing a kinase protein to which a luciferase tag has been added, a cell-permeant fluorescent NanoBRET™ tracer, a NanoLuc® substrate, and an extracellular NanoLuc® inhibitor. Upon expression of the luciferase-tagged kinase, cells will produce a strong BRET signal only in the presence of the NanoBRET™ tracer. The extracellular NanoLuc® inhibitor ensures that the BRET signal observed emanates only from live cells. Because the BRET signal has tight distance constraints, addition of the test compound will decrease the BRET signal if the compound competes with the NanoBRET™ tracer for binding to the kinase domain. Under the appropriate tracer conditions established by the manufacturer, quantitative intracellular affinity and relative potency can then be determined using Mass Action model equations.
HEK-293 cells were purchased from ATCC. FuGENEHD Transfection Reagent, Kinase-NanoLucfusion plasmids, Transfection Carrier DNA, NanoBRETTracers and dilution buffer, NanoBRETNano-Glo Substrate, Extracellular NanoLucInhibitor were obtained from Promega.
Assays were conducted following Promega assay protocol with some modifications. HEK-293 Cells were transiently transfected with Kinase-NanoLucFusion Vector DNA by FuGENEHD Transfection Reagent. Testing compounds were delivered into 384 well assay plate by Echo 550 (LabcyteInc, Sunnyvale, CA). Transfected cells were harvested and mixed with NanoBRETTracer Reagent and dispensed into 384 well plates and incubated at 37° C. in 5% C02 cell culture incubator for 1 hour. The NanoBRETNano-Glo Substrate plus Extracellular NanoLucInhibitor Solution were added into the wells of the assay plate and incubated for 2-3 minutes at room temperature. The donor emission wavelength (460 nm) and acceptor emission wavelength (600 nm) were measured in the EnVisionplate reader. The BRET Ratios were calculated. BRET Ratio=[(Acceptor sample÷Donor sample)−(Acceptor no-tracer control÷Donor no-tracer control)]. The IC50 values of compounds were calculated with Prism GraphPad program.
• 1). Cultivate HEK-293 cells (70-80% confluence) appropriately prior to assay. Trypsinize and collect HEK-293 cells. • 2). Prepare lipid: DNA complexes as follows: • a. Prepare a 10 μg/ml solution of DNA in Opti-MEM without serum that consists of the following ratios of carrier DNA and DNA encoding NanoLuc® fusion. 9.0 μg/mL of Transfection Carrier DNA, 1.0 μg/mL of NanoLuc fusion vector DNA and 1 mL of Opti-MEM without phenol red. Mix thoroughly. • b. Add 30 μl of FuGENE HD Transfection Reagent into each milliliter of DNA mixture to form lipid: DNA complex. • c. Mix by inversion 10 times. • d. Incubate at ambient temperature for 20 minutes to allow complexes to form. • 3). In a sterile, conical tube, mix 1 part of lipid:DNA complex with 20 parts of HEK-293 cells in suspension. Mix gently by inversion 5 times. • 4). Dispense cells+lipid:DNA complex into a sterile tissue culture dish and incubate for 22-24 hours.
Each test compound is delivered from the compound source plate to the wells of 384-well white NBS plate by Echo 550.
3. Preparation of Cells with NanoBRET™ Tracer Reagent • 1). […]

[2] = tested on: NF-κB-inducible SEAP reporter in THP-1-Blue NF-κB cells; test: NF-kB SEAP reporter assay in THP-1-Blue NF-κB cells; format: cell-based; conditions: 24 hours
Outline: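 Cells (1×10^5/well) stimulated with Pam3CSK4 (1 ng/mL) or hIL1B (1 ng/mL), then after 10-20 min given 10-point 1:10 compound dilutions from 1 μM or 3 μM for 24 h at 37° C. Secreted SEAP in supernatant read with QUANTI-Blue (30-60 min, 37° C) at 620 nm.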

[3] = THP-1-Blue NF-κB cells stimulated with Pam3CSK4 (1 ng/mL), read-out: NF-κB Pam3SCK4 IC50
[4] = THP-1-Blue NF-κB cells stimulated with hIL1B (1 ng/mL), read-out: NF-κB IL1B IC50

SMILES | IC50 [1] [nM] | IC50 [2, 3] [nM] | IC50 [2, 4] [nM]
CC(O)(c1ccc2ncc(-c3ccnc(N[C@@H]4CCCNC4)n3)n2c1)C(F)(F)F (single isomer, unassigned) [Compound 22a] | 38 | – | –
CC(O)(c1ccc2ncc(-c3ccnc(N[C@@H]4CCCNC4)n3)n2c1)C(F)(F)F (single isomer, unassigned) [Compound 23a] | 3 | 56 | 96
CC(O)(c1ccc2ncc(-c3ccnc(N[C@H]4CNCC[C@@H]4F)n3)n2c1)C(F)(F)F (single isomer, unassigned) [Compound 25a] | 40 | 193 | 152
CC(O)(c1ccc2ncc(-c3cncc(N[C@@H]4CCCNC4)n3)n2c1)C(F)(F)F (single isomer, unassigned) [Compound 28a] | 2960 | 96 | 149
CC(O)(c1ccc2ncc(-c3cncc(N[C@H]4CNCC[C@@H]4F)n3)n2c1)C(F)(F)F (single isomer, unassigned) [Compound 31a] | 1810 | 138 | 100
COc1cc2ncc(-c3nc(N[C@H]4CNCC[C@@H]4F)ncc3F)n2nc1C1CC1 [Compound 1a, 4-(6-cyclopropyl-7-methoxyimidazo[1,2-b]pyridazin-3-yl)-5-fluoro-N-((3S,4S)-4-fluoropiperidin-3-yl)pyrimidin-2-amine] | 1 | 17 | 22
FC(F)COc1cc2ncc(-c3ccnc(N[C@H]4CNCC[C@@H]4F)n3)n2nc1C1CC1 [Compound 4a, 4-(6-cyclopropyl-7-(2,2-difluoroethoxy)imidazo[1,2-b]pyridazin-3-yl)-N-((3 S,4S)-4-fluoropiperidin-3-yl)pyrimidin-2-amine] | 4 | 184 | 166
F[C@H]1CCNC[C@@H]1Nc1nccc(-c2cnc3cc(OC4CC4)c(C4CC4)nn23)n1 [Compound 12a, 4-(7-cyclopropoxy-6-cyclopropylimidazo[1,2-b]pyridazin-3-yl)-N-((3S,4S)-4-fluoropiperidin-3-yl)pyrimidin-2-amine] | < 0.5 | 382 | 220
COc1cc2ncc(-c3nc(N[C@H]4CNCC[C@@H]4F)ncc3F)n2nc1C(C)(C)O [Compound 45a, 2-(3-(5-fluoro-2-(((3S,4S)-4-fluoropiperidin-3-yl)amino)pyrimidin-4-yl)-7-methoxyimidazo[1,2-b]pyridazin-6-yl)propan-2-ol] | 44 | 204 | 351
CC(C)(O)c1ccc2ncc(-c3nc(N[C@H]4CNCC[C@@H]4F)ncc3F)n2c1 [Compound 46a, 2-(3-(5-fluoro-2-(((3S,4S)-4-fluoropiperidin-3-yl)amino)pyrimidin-4-yl)imidazo[1,2-a]pyridin-6-yl)propan-2-ol] | 102 | 103 | 112
CC(C)(O)c1ccc2ncc(-c3nc(N[C@@H]4CCCNC4)ncc3F)n2c1 [Compound 48a, (R)-2-(3-(5-fluoro-2-(piperidin-3-ylamino)pyrimidin-4-yl)imidazo[1,2-a]pyridin-6-yl)propan-2-ol] | 141 | 56 | 96
COc1cc2ncc(-c3nc(N[C@H]4CNCC[C@@H]4F)ncc3F)n2nc1C1CC(F)(F)C1 [Compound 49a, 4-(6-(3,3-difluorocyclobutyl)-7-methoxyimidazo[1,2-b]pyridazin-3-yl)-5-fluoro-N-((3S,4S)-4-fluoropiperidin-3-yl)pyrimidin-2-amine] | < 0.5 | 79 | 89
COc1cc2ncc(-c3nc(N[C@@H]4CCCNC4)ncc3F)n2nc1C1CC2(CCC2)C1 [Compound 59a, (R)-5-fluoro-4-(7-methoxy-6-(spiro[3.3]heptan-2-yl)imidazo[1,2-b]pyridazin-3-yl)-N-(piperidin-3-yl)pyrimidin-2-amine] | – | 250 | 323
COc1cc2ncc(-c3nc(N[C@H]4CNCC[C@@H]4F)ncc3F)n2nc1C1CC2(CCC2)C1 [Compound 60a, 5-fluoro-N-((3S,4S)-4-fluoropiperidin-3-yl)-4-(7-methoxy-6-(spiro[3.3]heptan-2-yl)imidazo[1,2-b]pyridazin-3-yl)pyrimidin-2-amine] | – | 156 | 200
COc1cc2ncc(-c3ccnc(N[C@H]4CNCC[C@@H]4F)n3)n2nc1C1CCC1 [Compound 79a, 4-(6-cyclobutyl-7-methoxyimidazo[1,2-b]pyridazin-3-yl)-N-((3S,4S)-4-fluoropiperidin-3-yl)pyrimidin-2-amine] | < 0.5 | 340 | 271
COc1cc2ncc(-c3nc(N[C@H]4CNCC[C@@H]4F)ncc3F)n2nc1C1COC1 [Compound 92a, 5-fluoro-N-((3S,4S)-4-fluoropiperidin-3-yl)-4-(7-methoxy-6-(oxetan-3-yl)imidazo[1,2-b]pyridazin-3-yl)pyrimidin-2-amine] | 4 | 53 | 60
CC(C)(O)c1cn2c(-c3nc(N[C@H]4CNCC[C@@H]4F)ncc3F)cnc2cn1 [Compound 100a, 2-(3-(5-fluoro-2-(((3S,4S)-4-fluoropiperidin-3-yl)amino)pyrimidin-4-yl)imidazo[1,2-a]pyrazin-6-yl)propan-2-ol] | 4250 | 69 | 83
COc1cc2ncc(-c3nc(N[C@H]4CNC[C@@H]4F)ncc3F)n2nc1N1CCCS1(=O)=O [Compound 111a, 2-(3-(5-fluoro-2-(((3S,4S)-4-fluoropyrrolidin-3-yl)amino)pyrimidin-4-yl)-7-methoxyimidazo[1,2-b]pyridazin-6-yl)isothiazolidine 1,1-dioxide] | 77 | – | –
